# Where a name gives a salt, the structure may show the parent alone.
# System: HIV
# Experiment: MT4 assay: antiviral HIV activity (cell protection, cell titer glo readout at 96 hours)
# Type: cell-based
# Conditions: Human immunodeficiency virus 1, MT4, 96 h, MT4 cells, cell titer glo readout at 96 hours, 10 point dose response; read-out: HIV MT4 Assay IC50
# How it was run: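 MT-4 cells infected with HIV, with inhibition readout by CellTiter-Glo luminescence at 96 h relative to no-compound control. Cytotoxicity measured in parallel under the same conditions. IC50 from a 10-point, 3-4-fold dilution series spanning >1000-fold, fitted with a four-parameter logistic equation.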
row,Structure (SMILES),IC50
1,"Cc1nc2c(cc(-c3ccnc(C(=O)N4CCN(S(C)(=O)=O)CC4)c3)n2C)c(-c2cc(F)c3c(c2C)CCCO3)c1[C@H](OC(C)(C)C)C(=O)O (atropisomer, axis not shown) [Example 146]",0.487 µM
2,"Cc1nc2c(cc(-c3ccnc(C(=O)NCCN4CCCC4=O)c3)n2C)c(-c2cc(F)c3c(c2C)CCCO3)c1[C@H](OC(C)(C)C)C(=O)O (atropisomer, axis not shown) [Example 149]",0.219 µM
3,"Cc1nc2c(cc(-c3ccnc(C(=O)NCc4c[nH]cn4)c3)n2C)c(-c2cc(F)c3c(c2C)CCCO3)c1[C@H](OC(C)(C)C)C(=O)O (atropisomer, axis not shown) [Example 150]",9.36 µM
4,"Cc1nc2c(cc(-c3ccnc(C(=O)NCc4ccc(F)cc4)c3)n2C)c(-c2cc(F)c3c(c2C)CCCO3)c1[C@H](OC(C)(C)C)C(=O)O (atropisomer, axis not shown) [Example 151]",0.0436 µM
5,"Cc1nc2c(cc(-c3ccnc(C(=O)NC4CCCCC4)c3)n2C)c(-c2cc(F)c3c(c2C)CCCO3)c1[C@H](OC(C)(C)C)C(=O)O (atropisomer, axis not shown) [Example 152]",0.0724 µM
6,"Cc1nc2c(cc(-c3ccnc(C(=O)Nc4ccn(C)n4)c3)n2C)c(-c2cc(F)c3c(c2C)CCCO3)c1[C@H](OC(C)(C)C)C(=O)O (atropisomer, axis not shown) [Example 153]",0.044 µM
7,"Cc1nc2c(cc(-c3ccnc(C#CC4(N)CCCCC4)c3)n2C)c(-c2cc(F)c3c(c2C)CCCO3)c1[C@H](OC(C)(C)C)C(=O)O (atropisomer, axis not shown) [Example 156]",0.0398 µM
8,"Cc1nc2c(cc(-c3ccnc(C#CCN4CCOCC4)c3)n2C)c(-c2cc(F)c3c(c2C)CCCO3)c1[C@H](OC(C)(C)C)C(=O)O (atropisomer, axis not shown) [Example 158]",0.045 µM
9,"Cc1nc2c(cc(-c3ccnc(C#CC4(O)CCCCC4)c3)n2C)c(-c2cc(F)c3c(c2C)CCCO3)c1[C@H](OC(C)(C)C)C(=O)O (atropisomer, axis not shown) [Example 159]",0.0279 µM
10,"Cc1nc2c(cc(-c3ccnc(-c4ccc5c(cnn5C)c4)c3)n2C)c(-c2ccc3c(c2C)CCCO3)c1[C@H](OC(C)(C)C)C(=O)O (atropisomer, axis not shown; (M)) [Example 1, (2S)(M)-2-(tert-butoxy)-2-(1,6-dimethyl-2-(2-(1-methyl-1H-indazol-5-yl)pyridin-4-yl)-4-(5-methylchroman-6-yl)-1H-pyrrolo[2,3-b]pyridin-5-yl)acetic acid]",0.0017 µM
11,"Cc1nc2c(cc(-c3nc(N4CCN(C5CCOCC5)CC4)no3)n2C)c(-c2cc(F)c3c(c2C)CCCO3)c1[C@H](OC(C)(C)C)C(=O)O (atropisomer, axis not shown; (M)) [Example 27, (2S)(M)-2-(tert-butoxy)-2-(4-(8-fluoro-5-methylchroman-6-yl)-1,6-dimethyl-2-(3-(4-(tetrahydro-2H-pyran-4-yl)piperazin-1-yl)-1,2,4-oxadiazol-5-yl)-1H-pyrrolo[2,3-b]pyridin-5-yl)acetic acid]",0.0046 µM
12,"Cc1nc2c(cc(-c3nnc(-c4ccc5c(cnn5C)c4)o3)n2C)c(-c2cc(F)c3c(c2C)CCCO3)c1[C@H](OC(C)(C)C)C(=O)O (atropisomer, axis not shown; (M)) [Example 28, (2S)(M)-2-(tert-butoxy)-2-(4-(8-fluoro-5-methylchroman-6-yl)-1,6-dimethyl-2-(5-(1-methyl-1H-indazol-5-yl)-1,3,4-oxadiazol-2-yl)-1H-pyrrolo[2,3-b]pyridin-5-yl)acetic acid]",0.0018 µM
13,"Cc1nc2c(cc3n2CCCC3)c(-c2cc(F)c3c(c2C)CCCO3)c1[C@H](OC(C)(C)C)C(=O)O (atropisomer, axis not shown; (M)) [Example 29, (2S)(M)-2-(tert-butoxy)-2-(4-(8-fluoro-5-methylchroman-6-yl)-2-methyl-6,7,8,9-tetrahydropyrido[3,2-b]indolizin-3-yl)acetic acid]",0.0138 µM
14,"Cc1nc2c(cc(-c3ccn(C4CN(C)C4)n3)n2C)c(-c2cc(F)c3c(c2C)CCCO3)c1[C@H](OC(C)(C)C)C(=O)O (atropisomer, axis not shown; (M)) [Example 129, (2S)(M)-2-(tert-butoxy)-2-(-4-(8-fluoro-5-methylchroman-6-yl)-1,6-dimethyl-2-(1-(1-methylazetidin-3-yl)-1H-pyrazol-3-yl)-1H-pyrrolo[2,3-b]pyridin-5-yl)acetic acid]",0.0452 µM
15,"Cc1nc2c(cc(-c3ccnc(C(=O)N4CCN(c5ccccc5)CC4)c3)n2C)c(-c2cc(F)c3c(c2C)CCCO3)c1[C@H](OC(C)(C)C)C(=O)O (atropisomer, axis not shown; (M)) [Example 145]",0.0453 µM
16,"Cc1nc2c(cc(-c3ccnc(C#Cc4cncn4C)c3)n2C)c(-c2cc(F)c3c(c2C)CCCO3)c1[C@H](OC(C)(C)C)C(=O)O (atropisomer, axis not shown; (M)) [Example 154, (2S)(M)-2-(tert-butoxy)-2-(-4-(8-fluoro-5-methylchroman-6-yl)-1,6-dimethyl-2-(2-((1-methyl-1H-imidazol-5-yl)ethynyl)pyridin-4-yl)-1H-pyrrolo[2,3-b]pyridin-5-yl)acetic acid]",0.011 µM
17,"Cc1nc2c(cc(C(=S)N3CCC(c4ccccc4)CC3)n2C)c(-c2cc(F)c3c(c2C)CCCO3)c1[C@H](OC(C)(C)C)C(=O)O (atropisomer, axis not shown; (M)) [Example 281, (2S)(M)-2-(tert-butoxy)-2-(-4-(8-fluoro-5-methylchroman-6-yl)-1,6-dimethyl-2-(4-phenylpiperidine-1-carbonothioyl)-1H-pyrrolo[2,3-b]pyridin-5-yl)acetic acid]",0.0383 µM
18,"Cc1nc2c(cc(CCc3ccccc3)n2C)c(-c2cc(F)c3c(c2C)CCCO3)c1[C@H](OC(C)(C)C)C(=O)O (atropisomer, axis not shown; (M)) [Example 282, (2S)(M)-2-(tert-butoxy)-2-(-4-(8-fluoro-5-methylchroman-6-yl)-1,6-dimethyl-2-phenethyl-1H-pyrrolo[2,3-b]pyridin-5-yl)acetic acid]",0.0568 µM

# The remaining lines, values ahead:
row,IC50,Structure (SMILES)
1,0.291 µM,"Cc1nc2c(cc(-c3cnn(CC4CN(C5CCOCC5)C4)c3)n2C)c(-c2cc(F)c3c(c2C)CCCO3)c1[C@H](OC(C)(C)C)C(=O)O (atropisomer, axis not shown) [Example 130]"
2,0.0895 µM,"Cc1nc2c(cc(-c3ccc(F)cc3)n2C)c(-c2cc(F)c3c(c2C)CCCO3)c1[C@H](OC(C)(C)C)C(=O)O (atropisomer, axis not shown) [Example 131]"
3,0.0329 µM,"CCCn1cc(-c2cc3c(-c4cc(F)c5c(c4C)CCCO5)c([C@H](OC(C)(C)C)C(=O)O)c(C)nc3n2C)cn1 (atropisomer, axis not shown) [Example 132]"
4,0.104 µM,"Cc1nc2c(cc(-c3cnn(C4CCN(C5COC5)CC4)c3)n2C)c(-c2cc(F)c3c(c2C)CCCO3)c1[C@H](OC(C)(C)C)C(=O)O (atropisomer, axis not shown) [Example 133]"
5,0.0392 µM,"Cc1nc2c(cc(-c3ccc4c(cnn4C)c3)n2C)c(-c2cc(F)c3c(c2C)CCCO3)c1[C@H](OC(C)(C)C)C(=O)O (atropisomer, axis not shown) [Example 134]"
6,0.126 µM,"Cc1nc2c(cc(-c3ccc4c(c3)N(C)CCO4)n2C)c(-c2cc(F)c3c(c2C)CCCO3)c1[C@H](OC(C)(C)C)C(=O)O (atropisomer, axis not shown) [Example 135]"
7,0.0425 µM,"Cc1nc2c(cc(-c3ccc4nccn4c3)n2C)c(-c2cc(F)c3c(c2C)CCCO3)c1[C@H](OC(C)(C)C)C(=O)O (atropisomer, axis not shown) [Example 136]"
8,0.0438 µM,"Cc1nc2c(cc(-c3ccc4c(c3)CCN(C)C4=O)n2C)c(-c2cc(F)c3c(c2C)CCCO3)c1[C@H](OC(C)(C)C)C(=O)O (atropisomer, axis not shown) [Example 137]"
9,0.0453 µM,"Cc1nc2c(cc(-c3ccnc(C(=O)Nc4cnn(C)c4)c3)n2C)c(-c2cc(F)c3c(c2C)CCCO3)c1[C@H](OC(C)(C)C)C(=O)O (atropisomer, axis not shown) [Example 147]"
10,0.0401 µM,"Cc1nc2c(cc(-c3ccnc(C(=O)Nc4ccnn4C)c3)n2C)c(-c2cc(F)c3c(c2C)CCCO3)c1[C@H](OC(C)(C)C)C(=O)O (atropisomer, axis not shown) [Example 148]"
11,0.0819 µM,"Cc1nc2c(cc(-c3ccnc(C#CC(C)(C)N)c3)n2C)c(-c2cc(F)c3c(c2C)CCCO3)c1[C@H](OC(C)(C)C)C(=O)O (atropisomer, axis not shown) [Example 155]"
12,0.03 µM,"Cc1nc2c(cc(-c3ccnc(C#CCN4CCCC4)c3)n2C)c(-c2cc(F)c3c(c2C)CCCO3)c1[C@H](OC(C)(C)C)C(=O)O (atropisomer, axis not shown) [Example 157]"
13,0.15 µM,"Cc1nc2c(cc(-c3ccnc(C#CCN4CCN(C)CC4)c3)n2C)c(-c2cc(F)c3c(c2C)CCCO3)c1[C@H](OC(C)(C)C)C(=O)O (atropisomer, axis not shown) [Example 160]"

# Same assay, conditions: Human immunodeficiency virus 1, MT4, 96 h, read-out: HIV MT4 Assay IC50
row,Structure (SMILES),IC50
1,"Cc1nc2c(cc(C(=O)N3CCN(C4CCCC4)CC3)n2C)c(-c2cc(F)c3c(c2C)CCCO3)c1[C@H](OC(C)(C)C)C(=O)O (atropisomer, axis not shown; (M)) [Example 161, (2S)(M)-2-(tert-butoxy)-2-(2-(4-cyclopentylpiperazine-1-carbonyl)-4-(8-fluoro-5-methylchroman-6-yl)-1,6-dimethyl-1H-pyrrolo[2,3-b]pyridin-5-yl)acetic acid ditrifluoroacetic acid salt]",0.0379 µM

# Same assay, conditions: MT4 cells, cell titer glo readout at 96 hours, 10 point dose response; read-out: HIV MT4 Assay IC50
row,Structure (SMILES),IC50
1,"Cc1nc2c(cc(-c3nc(N4CCN(C5CCOCC5)CC4)ns3)n2C)c(-c2cc(F)c3c(c2C)CCCO3)c1[C@H](OC(C)(C)C)C(=O)O (atropisomer, axis not shown; (M)) [Example 26, (2S)(M)-2-(tert-butoxy)-2-(4-(8-fluoro-5-methylchroman-6-yl)-1,6-dimethyl-2-(3-(4-(tetrahydro-2H-pyran-4-yl)piperazin-1-yl)-1,2,4-thiadiazol-5-yl)-1H-pyrrolo[2,3-b]pyridin-5-yl)acetic acid]",0.0029 µM
